Test results taken from US20150148377A1, “Quinoline Derivatives” (NOVARTIS AG, priority 2011, published 2015).

How the values were obtained:
PI3K alpha = target: T1, PI3K alpha (Homo sapiens, UniProt P42336); assay: Enzymatic PI3K alpha isoform inhibition (lipid kinase activity, Kinase-Glo); format: biochemical; settings: enzymatic assay
T1 construct: His tag (C); made in house; host or cells: baculovirus; Tn5 (Trichoplusia ni) or TiniPro insect cells
Procedure: The kinase reaction is performed in a final volume of 50 μl per well of a half area COSTAR, 96 well plate. The final concentrations of ATP and phosphatidyl inositol in the assay are 5 μM and 6 μg/mL, respectively. The reaction is started by the addition of PI3 kinase, e.g. PI3 kinase δ.
(§1) In a more preferred assay, the kinase reaction is performed in a final volume of 10 μl per well of a low volume non-binding CORNING, 384 well black plate (Cat. No. #3676). The final concentrations of ATP and phosphatidyl inositol (PI) in the assay are 1 μM and 10 μg/mL, respectively. The reaction is started by the addition of ATP.
(§2) The components of the assay are added per well as follows:
(§3) 50 nl test compounds in 90% DMSO per well, in columns 1-20, 8 concentrations (1/3 and 1/3.33 serial dilution step) in single. • Low control: 50 nl of 90% DMSO in half the wells of columns 23-24 (0.45% in final). • High control: 50 nl of reference compound (e.g. compound of Example 7 in WO 2006/122806) in the other half of columns 23-24 (2.5 μM in final). • Standard: 50 nl of reference compound as just mentioned diluted as the test compounds in columns 21-22. • 20 mL ‘buffer’ are prepared per assay: • 200 μl of 1M TRIS HCl pH7.5 (10 mM in final) • 60 μl of 1M MgCl2 (3 mM in final) • 500 μl of 2M NaCl (50 mM in final) • 100 μl of 10% CHAPS (0.05% in final) • 200 μl of 100 mM DTT (1 mM in final) • 18.94 mL of nanopure water • 10 mL ‘PI’ are prepared per assay: • 200 μl of 1 mg/mL 1-alpha-Phosphatidylinositol (Liver Bovine, Avanti Polar Lipids Cat. No. 840042C MW=909.12) prepared in 3% OctylGlucoside (10 μg/mL in final) • 9.8 mL of ‘buffer’ • 10 mL ‘ATP’ are prepared per assay: • 6.7 μl of 3 mM stock of ATP giving a final concentration of 1 μM per well • 10 mL of ‘buffer’ • 2.5 mL of each PI3K construct are prepared per assay in ‘PI’ with the following final concentration: • 10 nM PI3K alfa EMV B1075 • 25 nM beta EMV BV949 • 10 nM delta EMV BV1060 • 150 nM gamma EMV BV950 • 5 μl of ‘PI/PI3K’ are added per well. • 5 μl ‘ATP’ are added per well to start the reaction. • The plates are then incubated at room temperature for 60 minutes (alfa, beta, delta) or 120 minutes (gamma). • The reaction is terminated by the addition of 10 μl Kinase-Glo (Promega Cat. No. #6714). • The assay plates are read after 10 minutes in Synergy 2 reader (BioTek, Vermont USA) with an integration time of 100 milliseconds and sensitivity set to 191. • Output: The High control is around 60'000 counts and the Low control is 30'000 or lower • This luminescence assay gives a useful Z′ ratio between 0.4 and 0.7
(§4) IC50 is determined by a four parameter curve fitting routine that comes along with “excel fit”. A four parameter logistic equation is used to calculate IC50 values (IDBS XLfit) of the percentage inhibition of each compound at 8 concentrations (usually 10, 3.0, 1.0, 0.3, 0.1, 0.030, 0.010 and 0.003 μM). Alternatively, IC50 values are calculated using idbsXLfit model 204, which is a 4 parameter logistic model.
(§5) Yet alternatively, for an ATP depletion assay, compounds of the formula I to be tested are dissolved in DMSO and directly distributed into a white 384-well plate at 0.5 μl per well. To start the reaction, 10 μl of 10 nM PI3 kinase and 5 μg/mL 1-alpha-phosphatidylinositol (PI) are added into each well followed by 10 μl of 2 μM ATP. The reaction is performed until approx 50% of the ATP is depleted, and then stopped by the addition of 20 μl of Kinase-Glo solution (Promega Corp., Madison, Wis., USA). The stopped reaction is incubated for 5 minutes and the remaining ATP is then detected via luminescence. IC50 values are then determined.

PI3K delta = target: T2, PI3K delta (Homo sapiens, UniProt O00329); assay: Enzymatic PI3K delta isoform inhibition (lipid kinase activity, Kinase-Glo); format: biochemical; settings: enzymatic assay
T2 construct: for the full-length p110-d subunit are generated and fused by overlapping PCR; His tag (C); made in house; host or cells: baculovirus; Tn5 (Trichoplusia ni) or TiniPro insect cells
Procedure: as §1, §2, §3, §4, §5

T2 sequence (O00329 with tags, fused parts or gaps limits assumed): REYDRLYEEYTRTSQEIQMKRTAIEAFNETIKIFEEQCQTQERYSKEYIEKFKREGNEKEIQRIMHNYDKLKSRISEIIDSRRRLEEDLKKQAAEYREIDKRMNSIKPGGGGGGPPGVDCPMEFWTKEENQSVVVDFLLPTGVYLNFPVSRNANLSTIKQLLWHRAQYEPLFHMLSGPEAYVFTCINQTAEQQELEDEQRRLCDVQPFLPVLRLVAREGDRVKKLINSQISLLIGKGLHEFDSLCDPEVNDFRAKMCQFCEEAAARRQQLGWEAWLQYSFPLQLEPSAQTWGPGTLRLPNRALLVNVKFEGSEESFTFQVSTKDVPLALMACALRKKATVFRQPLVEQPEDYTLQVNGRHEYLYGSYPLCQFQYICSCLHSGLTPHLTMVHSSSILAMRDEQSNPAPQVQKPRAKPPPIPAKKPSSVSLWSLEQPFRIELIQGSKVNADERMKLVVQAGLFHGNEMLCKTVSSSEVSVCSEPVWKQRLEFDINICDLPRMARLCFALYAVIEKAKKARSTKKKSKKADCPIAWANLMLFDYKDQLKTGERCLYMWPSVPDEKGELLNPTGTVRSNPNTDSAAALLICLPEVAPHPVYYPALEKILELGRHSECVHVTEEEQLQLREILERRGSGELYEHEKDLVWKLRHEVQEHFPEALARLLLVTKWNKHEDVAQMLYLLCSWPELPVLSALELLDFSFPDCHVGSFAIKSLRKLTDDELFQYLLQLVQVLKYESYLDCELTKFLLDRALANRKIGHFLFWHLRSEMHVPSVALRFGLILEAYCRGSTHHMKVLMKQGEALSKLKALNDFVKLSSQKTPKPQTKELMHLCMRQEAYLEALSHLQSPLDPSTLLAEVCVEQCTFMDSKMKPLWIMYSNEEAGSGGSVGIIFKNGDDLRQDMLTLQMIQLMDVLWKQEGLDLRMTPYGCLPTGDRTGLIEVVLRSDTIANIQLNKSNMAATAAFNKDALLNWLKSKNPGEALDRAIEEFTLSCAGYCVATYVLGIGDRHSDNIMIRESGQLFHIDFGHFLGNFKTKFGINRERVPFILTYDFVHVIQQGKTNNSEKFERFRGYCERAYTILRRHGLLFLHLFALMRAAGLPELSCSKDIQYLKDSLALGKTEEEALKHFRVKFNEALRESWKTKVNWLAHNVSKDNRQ
T1 sequence (P42336 with tags, fused parts or gaps limits assumed): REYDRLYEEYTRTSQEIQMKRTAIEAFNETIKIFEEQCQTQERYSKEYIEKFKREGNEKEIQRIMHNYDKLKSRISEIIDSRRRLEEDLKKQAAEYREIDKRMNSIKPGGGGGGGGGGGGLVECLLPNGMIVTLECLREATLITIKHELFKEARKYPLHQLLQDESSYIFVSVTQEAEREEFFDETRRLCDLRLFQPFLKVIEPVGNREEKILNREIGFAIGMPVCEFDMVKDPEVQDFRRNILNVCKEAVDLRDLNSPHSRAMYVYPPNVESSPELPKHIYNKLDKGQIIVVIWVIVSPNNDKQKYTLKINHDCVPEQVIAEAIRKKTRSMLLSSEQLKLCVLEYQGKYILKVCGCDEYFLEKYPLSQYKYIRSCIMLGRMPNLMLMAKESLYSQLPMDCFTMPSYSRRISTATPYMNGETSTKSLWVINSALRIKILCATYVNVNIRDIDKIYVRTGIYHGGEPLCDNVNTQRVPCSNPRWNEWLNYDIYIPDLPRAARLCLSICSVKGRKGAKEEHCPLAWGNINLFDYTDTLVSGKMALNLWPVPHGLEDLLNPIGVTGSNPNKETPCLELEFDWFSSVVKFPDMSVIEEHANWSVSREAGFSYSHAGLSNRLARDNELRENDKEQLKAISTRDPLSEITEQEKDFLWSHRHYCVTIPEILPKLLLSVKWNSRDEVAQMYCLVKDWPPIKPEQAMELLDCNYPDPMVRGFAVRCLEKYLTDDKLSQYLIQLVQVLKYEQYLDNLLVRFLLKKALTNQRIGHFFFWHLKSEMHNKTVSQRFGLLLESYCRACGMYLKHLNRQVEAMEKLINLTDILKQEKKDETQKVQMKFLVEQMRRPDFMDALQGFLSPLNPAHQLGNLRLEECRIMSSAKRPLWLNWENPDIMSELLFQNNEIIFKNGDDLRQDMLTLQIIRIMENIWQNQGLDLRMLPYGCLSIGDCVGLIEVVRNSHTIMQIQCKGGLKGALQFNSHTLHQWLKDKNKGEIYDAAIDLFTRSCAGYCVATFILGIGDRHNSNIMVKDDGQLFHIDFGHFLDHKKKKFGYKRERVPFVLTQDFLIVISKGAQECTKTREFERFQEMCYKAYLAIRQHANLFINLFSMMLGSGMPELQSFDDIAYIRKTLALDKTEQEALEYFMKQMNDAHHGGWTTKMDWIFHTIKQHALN

Compound | IC50 (PI3K alpha) | IC50 (PI3K delta)
CS(=O)(=O)c1ncc(-c2ccnc3ccc(O[C@H]4CCN(C(=O)C5CCOCC5)C4)cc23)cc1CF [Example A20, {(S)-3-[4-(5-Fluoromethyl-6-methanesulfonyl-pyridin-3-yl)-quinolin-6-yloxy]-pyrrolidin-1-yl}-(tetrahydropyran-4-yl)-methanone] | 0.543 µM | 0.007 µM
CCC(=O)N1CC[C@H](Oc2ccc3nccc(-c4cnc(OC)c(C#N)c4)c3c2)C1 [Example A18, 2-Methoxy-5-[6-((S)-1-propionyl-pyrrolidin-3-yloxy)-quinolin-4-yl]-nicotinonitrile] | 0.613 µM | 0.007 µM
COc1ncc(-c2ccnc3ccc(O[C@H]4CCN(C(=O)c5cn(C)cn5)C4)cc23)cc1C [Example A39, {(S)-3-[4-(6-Methoxy-5-methyl-pyridin-3-yl)-quinolin-6-yloxy]-pyrrolidin-1-yl}-(1-methyl-1H-imidazol-4-yl)-methanone] | 0.189 µM | 0.071 µM
COc1ncc(-c2ccnc3ccc(O[C@H]4CCN(C(=O)c5ccc(=O)[nH]c5)C4)cc23)cc1C [Example A5, 5-{(S)-3-[4-(6-Methoxy-5-methyl-pyridin-3-yl)-quinolin-6-yloxy]-pyrrolidine-1-carbonyl}-1H-pyridin-2-one] | 0.231 µM | < 0.003 µM
COc1ncc(-c2ccnc3ccc(O[C@H]4CCN(C(=O)C5CCS(=O)(=O)CC5)C4)cc23)cc1C#N [Example A22, 5-{6-[(S)-1-(1,1-Dioxo-hexahydro-1lambda*6*-thiopyran-4-carbonyl)-pyrrolidin-3-yloxy]-quinolin-4-yl}-2-methoxy-nicotinonitrile] | 0.364 µM | 0.008 µM
CNc1cc(-c2ccnc3ccc(O[C@H]4CCN(C(=O)C5CCOCC5)C4)cc23)cnc1S(C)(=O)=O [Example A40, {(S)-3-[4-(6-Methanesulfonyl-5-methylamino-pyridin-3-yl)-quinolin-6-yloxy]-pyrrolidin-1-yl}-(tetrahydro-pyran-4-yl)-methanone] | 2.42 µM | 0.118 µM
COc1ncc(-c2ccnc3ccc(O[C@H]4CCN(C(=O)C5CCOCC5)C4)cc23)cc1C [Example A14, {(S)-3-[4-(6-Methoxy-5-methyl-pyridin-3-yl)-quinolin-6-yloxy]-pyrrolidin-1-yl}-(tetrahydro-pyran-4-yl)methanone] | 0.253 µM | 0.006 µM
COc1ncc(-c2ccnc3ccc(O[C@H]4CCN(C(=O)C5CCS(=O)(=O)CC5)C4)c(C)c23)cc1CF [Example B6, (1,1-Dioxo-hexahydro-1lambda*6*-thiopyran-4-yl)-{(S)-3-[4-(5-fluoromethyl-6-methoxy-pyridin-3-yl)-5-methyl-quinolin-6-yloxy]-pyrrolidin-1-yl}-methanone] | 0.294 µM | 0.012 µM
Cc1cc(-c2ccnc3ccc(O[C@H]4CCN(C(=O)C(C)C)C4)cc23)cnc1S(C)(=O)=O [Example A36, 1-{(S)-3-[4-(6-Methanesulfonyl-5-methyl-pyridin-3-yl)-quinolin-6-yloxy]-pyrrolidin-1-yl}-2-methyl-propan-1-one] | 1.57 µM | 0.039 µM
COc1ncc(-c2ccnc3ccc(O[C@H]4CCN(C(=O)C5CCOCC5)C4)c(C)c23)cc1C#N [Example B8, 2-Methoxy-5-{5-methyl-6-[(S)-1-(tetrahydro-pyran-4-carbonyl)-pyrrolidin-3-yloxy]-quinolin-4-yl}-nicotinonitrile] | 1.44 µM | 0.06 µM
COc1ncc(-c2ccnc3ccc(O[C@H]4CCN(C(=O)c5cn(C)cn5)C4)cc23)cc1C#N [Example A30, 2-Methoxy-5-{6-[(S)-1-(1-methyl-1H-imidazole-4-carbonyl)-pyrrolidin-3-yloxy]-quinolin-4-yl}-nicotinonitrile] | 0.381 µM | 0.0195 µM
COc1ncc(-c2ccnc3ccc(O[C@H]4CCN(C(=O)C5CCN(C(C)=O)CC5)C4)cc23)cc1C [Example A27, 1-(4-{(S)-3-[4-(6-Methoxy-5-methyl-pyridin-3-yl)-quinolin-6-yloxy]-pyrrolidine-1-carbonyl}-piperidin-1-yl)-ethanone] | 0.543 µM | 0.014 µM
Cc1cc(-c2ccnc3ccc(O[C@H]4CCN(C(=O)C5CCOCC5)C4)cc23)cnc1S(C)(=O)=O [Example A33, {(S)-3-[4-(6-Methanesulfonyl-5-methyl-pyridin-3-yl)-quinolin-6-yloxy]-pyrrolidin-1-yl}-(tetrahydro-pyran-4-yl)-methanone] | 3.37 µM | 0.025 µM
COc1ncc(-c2ccnc3ccc(O[C@H]4CCN(C(=O)c5ccc(=O)[nH]c5)C4)c(C)c23)cc1C(F)F [Example B2, 5-{(S)-3-[4-(5-Difluoromethyl-6-methoxy-pyridin-3-yl)-5-methyl-quinolin-6-yloxy]-pyrrolidine-1-carbonyl}-1H-pyridin-2-one] | 0.033 µM | 0.004 µM
Cc1cc(-c2ccnc3ccc(O[C@H]4CCN(C(=O)C5CCOCC5)C4)c(C)c23)cnc1S(C)(=O)=O [Example B5, {(S)-3-[4-(6-Methanesulfonyl-5-methyl-pyridin-3-yl)-5-methyl-quinolin-6-yloxy]-pyrrolidin-1-yl}-(tetrahydro-pyran-4-yl)-methanone] | 0.664 µM | 0.011 µM
CCC(=O)N1CC[C@H](Oc2ccc3nccc(-c4cnc(N)c(C(F)(F)F)c4)c3c2)C1 [Example A34, 1-{(S)-3-[4-(6-Amino-5-trifluoromethyl-pyridin-3-yl)-quinolin-6-yloxy]-pyrrolidin-1-yl}-propan-1-one] | 0.035 µM | 0.027 µM
COc1ncc(-c2ccnc3ccc(O[C@H]4CCN(C(=O)C5CCOC5)C4)cc23)cc1C#N (stereo partly drawn) [Example A12, 2-Methoxy-5-{6-[(S)-1-((R,S)-tetrahydro-furan-3-carbonyl)-pyrrolidin-3-yloxy]-quinolin-4-yl}-nicotinonitrile] | 0.305 µM | 0.005 µM
COc1ncc(-c2ccnc3ccc(O[C@H]4CCN(C(=O)c5ccc(=O)n(C)c5)C4)cc23)cc1C [Example A32, 5-{(S)-3-[4-(6-Methoxy-5-methyl-pyridin-3-yl)-quinolin-6-yloxy]-pyrrolidine-1-carbonyl}-1-methyl-1H-pyridin-2-one] | 0.851 µM | 0.021 µM
CS(=O)(=O)c1ncc(-c2ccnc3ccc(O[C@H]4CCN(C(=O)C5CCOCC5)C4)cc23)cc1Cl [Example A28, {(S)-3-[4-(5-Chloro-6-methanesulfonyl-pyridin-3-yl)-quinolin-6-yloxy]-pyrrolidin-1-yl}-(tetrahydro-pyran-4-yl)-methanone] | 1.39 µM | 0.014 µM
COc1ncc(-c2ccnc3ccc(O[C@H]4CCN(C(=O)C5CCS(=O)(=O)CC5)C4)cc23)cc1CF [Example A9, (1,1-Dioxo-hexahydro-1lambda*6*-thiopyran-4-yl)-{(S)-3-[4-(5-fluoromethyl-6-methoxy-pyridin-3-yl)-quinolin-6-yloxy]-pyrrolidin-1-yl}-methanone] | 0.172 µM | 0.004 µM
